Consider one molecule from patent US9763451B2, “Method for improved use of the production potential of genetically modified plants” (Bayer Intellectual Property GmbH, priority 2008, dated 2017).

Each structure is given as a SMILES string.

Common to all, as to format: in vivo
In experiment [1] the test system is Aphis gossypii. Description: Aphis gossypii test (foliar application) on genetically modified cotton. Particulars: 20 ppm. The text has this: (§1) A synergistic effect in insecticides and acaricides is always present when the action of the active compound combinations exceeds the total of the actions of the active compounds when applied individually.
(§2) The expected action for a given combination of two active compounds can be calculated as follows, using the formula of S. R. Colby, Weeds 15 (1967), 20-22:
(§3) • X is the kill rate, expressed as % of the untreated control, when employing active compound A at an application rate of m g/ha or in a concentration of m ppm, • Y is the kill rate, expressed as % of the untreated control, when employing the transgenic seed and • E is the kill rate, expressed as % of the untreated control, when employing the active compound A at application rates of m g/ha or in a concentration of m ppm and the transgenic seed, then
(§4) If the actual insecticidal kill rate exceeds the calculated value, the action of the combination is superadditive, i.e. a synergistic effect is present. In this case, the actually observed kill rate must exceed the value calculated using the above formula for the expected kill rate (E).
(§5) Individual potted genetically modified cotton plants with Lepidoptera resistance and Glyphosate resistance are treated with the desired product against the cotton aphid (Aphis gossypii).
(§6) After the desired period of time, the kill in % is determined. 100% means that all the aphids have been killed; 0% means that none of the aphids have been killed.

Experiment [2] relates to Aphis gossypii. Description: Aphis gossypii test (drench application) on genetically modified cotton. The settings on record: 0.8 ppm.
Text: as §1, §2, §3, §4, §5, §6

For experiment [3], the system named is Spodoptera frugiperda. The experiment is described as follows: Spodoptera frugiperda test (foliar application) on genetically modified maize. Particulars: compound alone, 100 ppm.
Text: as §1, §2, §3, §4
Pots with in each case 5 genetically modified maize plants with Lepidoptera, Coleoptera and/or herbicide resistances are treated in 2 replications against the armyworm (Spodoptera frugiperda).
After the desired period of time, the kill in % is determined. […]

[4] abbreviates: combined with cotton plant containing cry gene and Glyphosate resistance gene, expected kill.

On to `CC(c1ccc(C(F)(F)F)nc1)S(C)(=O)=NC#N` (stereo not shown) [compound I-8], for which, in experiment [1] (combined with cotton plant containing cry gene (Lepidoptera resistance) and Glyphosate resistance gene, after 1 d), the “Kill in % after 1d, found” value was 85%. For the same molecule, in experiment [1] (setting [4]), the “Kill in % after 1d, calc. (Colby formula)” value is 65%. Also, the “Kill in % after 1d” value in experiment [1] (active compound alone, after 1 d) stood at 65%. Also, the “Kill in % after 2d, found” value in experiment [2] (combined with cotton plant containing cry gene (Lepidoptera resistance) and Glyphosate resistance gene, after 2 d) was 90%. The “Kill in % after 2d, calc. (Colby formula)” value in experiment [2] (setting [4]) is 70%. Besides, the “Kill in % after 2d” value in experiment [2] (active compound alone, after 2 d) was determined as 70%. The “Kill in % after 4d” value in experiment [3] is 0%.
